# Source: patent US20130079373A1, “Substituted Methanesulfonamide Derivatives as Vanilloid Receptor Ligands” (priority 2011, published 2013)
# Biological target: T1, vanilloid receptor 1 (VR1/TRPV1 receptor) (Homo sapiens, UniProt Q8NER1)
# T1 construct: expressed in transfected cells; host or cells: CHO K1
# Assay: Functional testing on the vanilloid receptor 1 (FLIPR Ca2+ influx assay, capsaicin stimulation)
# Assay type: cell-based
# Details: Cap = capsaicin; human being; Ki from IC50 by the Cheng-Prusoff equation; read-out: (f) Ki (human being) [nM] Cap
# Procedure: Furthermore, preference may be given to compounds according to the invention that cause a 50 percent displacement of capsaicin, which is present at a concentration of 100 nM, in a FLIPR assay with CHO K1 cells which were transfected with the human VR1 gene at a concentration of less than 2,000 nM, preferably less than 1,000 nM, particularly preferably less than 300 nM, most particularly preferably less than 100 nM, even more preferably less than 75 nM, additionally preferably less than 50 nM, most preferably less than 10 nM.
# In the process, the Ca^2+ influx is quantified in the FLIPR assay with the aid of a Ca^2+-sensitive dye (type Fluo-4, Molecular Probes Europe BV, Leiden, the Netherlands) in a fluorescent imaging plate reader (FLIPR, Molecular Devices, Sunnyvale, USA), as described hereinafter.
# I. Functional Testing Carried Out on the Vanilloid Receptor 1 (VR1/TRPV1 Receptor) […]
# The number of cells in the suspension is set to 3×10^5 per mL and 150 μL of this suspension are in each case introduced into a recess in the cell culture plates coated as described hereinbefore. In the incubator the plates are left for two to three days at 37° C., 5% by volume of CO2 and 95% relative humidity. Subsequently, the cells are loaded with 2 μM of Fluo-4 and 0.01% by volume of Pluronic F127 (Molecular Probes Europe BV, Leiden, the Netherlands) in HBSS buffer (Hank's buffered saline solution, Gibco Invitrogen GmbH, Karlsruhe, Germany) for 30 min at 37° C., washed 3 times with HBSS buffer and after further incubation for 15 minutes at room temperature used for Ca^2+ measurement in a FLIPR assay. The Ca^2+ dependent fluorescence is in this case measured before and after the addition of substances (λex=488 nm, λem=540 nm). Quantification is carried out by measuring the highest fluorescence intensity (FC, fluorescence counts) over time.
# The FLIPR protocol consists of 2 substance additions. First the compounds to be tested (10 μM) are pipetted onto the cells and the Ca^2+ influx is compared with the control (capsaicin 10 μM). This provides the result in % activation based on the Ca^2+ signal after the addition of 10 μM of capsaicin (CP). After 5 minutes' incubation, 100 nM of capsaicin are applied and the Ca^2+ influx is also determined.
# Desensitising agonists and antagonists lead to suppression of the Ca^2+ influx. The % inhibition is calculated compared to the maximum achievable inhibition with 10 μM of capsazepine.
# Triple analyses (n=3) are carried out and repeated in at least 3 independent experiments (N=4).
# Starting from the percentage displacement caused by different concentrations of the compounds to be tested of general formula I, IC50 inhibitory concentrations which cause a 50-percent displacement of capsaicin were calculated. Ki values for the test substances were obtained by conversion by means of the Cheng-Prusoff equation (Cheng, Prusoff; Biochem. Pharmacol. 22, 3099-3108, 1973).
# The affinity of the compounds according to the invention for the vanilloid receptor 1 (VR1/TRPV1 receptor) was determined as described hereinbefore (pharmacological method I).
# T1 sequence (Q8NER1 whole entry): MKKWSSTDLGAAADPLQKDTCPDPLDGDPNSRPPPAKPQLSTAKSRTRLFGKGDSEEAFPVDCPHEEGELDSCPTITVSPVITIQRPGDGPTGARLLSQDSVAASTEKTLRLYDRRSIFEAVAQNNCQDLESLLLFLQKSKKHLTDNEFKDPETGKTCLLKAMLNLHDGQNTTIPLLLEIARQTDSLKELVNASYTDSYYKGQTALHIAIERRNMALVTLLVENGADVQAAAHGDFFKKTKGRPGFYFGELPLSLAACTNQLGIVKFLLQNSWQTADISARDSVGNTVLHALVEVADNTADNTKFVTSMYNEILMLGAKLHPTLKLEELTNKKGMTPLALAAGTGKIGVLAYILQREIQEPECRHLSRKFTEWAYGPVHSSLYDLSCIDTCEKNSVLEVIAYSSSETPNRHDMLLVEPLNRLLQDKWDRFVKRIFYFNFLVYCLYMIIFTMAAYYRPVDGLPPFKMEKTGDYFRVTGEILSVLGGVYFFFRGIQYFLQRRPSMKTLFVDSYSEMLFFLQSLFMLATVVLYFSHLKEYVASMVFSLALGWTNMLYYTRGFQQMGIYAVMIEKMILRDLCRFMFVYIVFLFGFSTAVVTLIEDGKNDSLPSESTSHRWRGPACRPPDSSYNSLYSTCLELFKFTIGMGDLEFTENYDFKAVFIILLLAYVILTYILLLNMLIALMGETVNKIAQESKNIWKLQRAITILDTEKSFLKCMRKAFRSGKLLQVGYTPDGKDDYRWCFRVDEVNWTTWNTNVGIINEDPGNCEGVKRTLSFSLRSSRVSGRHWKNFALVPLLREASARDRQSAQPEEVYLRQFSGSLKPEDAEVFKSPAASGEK
structure (smiles),measurement,value
"CCCCCc1nc(C(F)(F)F)ccc1CNC(=O)C(C)c1ccc(CNS(C)(=O)=O)c(F)c1 (stereo not shown) [Example 1, 2-(3-fluoro-4-(methylsulfonamidomethyl)phenyl)-N-((2-pentyl-6-(trifluoromethyl)pyridin-3-yl)methyl)propanamide]",Ki,14 nM
